In US6403652B1, “Method and composition” (Colgate-Palmolive Company, priority 2000, dated 2002):
≈ marks a conversion by molar mass, not a printed value. Where two headings read alike, the source gives them in different places.

Key:
Type in all cases: cell-based
Staphylococcus Aureus = assay: MIC by Broth Dilution Method against Staphylococcus Aureus; conditions: 37° C., visible growth
Procedure: Antimicrobial activity of several compounds was measured by determining the minimum inhibitory concentration (MIC). MIC is defined as the lowest concentration of an antimicrobial agent that will inhibit the growth of a microorganism and is usually expressed as ppm (μg/mL). MIC was determined by the Broth Dilution Method. To determine MIC a series of culture tubes was prepared, each tube containing the growth medium (Broth) with a decreasing concentration of the antimicrobial agent. The tubes were then inoculated with the test organism and incubated at 37° C. After incubation, tubes were visually examined for growth as indicated by turbidity. The lowest concentration that prevented visible growth is the MIC.

[1] = tested on: Staphylococcus Aureus isolate SA15 (susceptible); assay: MIC in multiwell plate broth dilution, isolate SA15
Procedure: (§1) 1. The following Staphylococcus Aureus isolates were tested:
(§2) 2. 2-t-butyl-5-(4-t-butylphenyl)-phenol (DTBBP) was dissolved in ethanol to a concentration of 1000 μg/mL. Higher concentrations could not be tested due to the formation of precipitate in the broth when higher concentrations were attempted.
(§3) 3. 100 μl of the 32 μg/ml solution added to column 12 of the multiwell plates, 50 μl M—H broth to each of the other columns. 50 μl removed from 12 to 11 for 1:1 dilution, continued to column 2. 50 μl removed from column 2 and discarded. Column 1 contained no drug. To control for the amount of ethanol added to each well, additional wells were set up as described above without DTBBP but with the same amount of ethanol as the test wells.
(§4) 4. 50 μl bacteria added to each well going from column 1 to column 12. All isolates run in duplicate with and without DTBBP.
(§5) 5. Addition of 50 μl bacteria to 50 μl drug dilutes both 1:1 for a final bacterial density of 5×10^5/ml and drug concentrations of:
(§6) 6. Incubated overnight at 37° C.

[2] = tested on: Staphylococcus Aureus isolate SA76 (resistant to methicillin, azithromycin, clarithromycin, erythromycin, ciprofloxacin); assay: MIC in multiwell plate broth dilution, isolate SA76
Procedure: as §1, §2, §3, §4, §5, §6

[3] = tested on: Staphylococcus Aureus isolate SA100 (resistant to methicillin only); assay: MIC in multiwell plate broth dilution, isolate SA100
Procedure: as §1, §2, §3, §4, §5, §6

[4] = MIC in multiwell plate broth dilution, isolate SA22; conditions: Staphylococcus aureus
Procedure: as §1, §2, §3, §4, §5, §6

[5] = tested on: Staphylococcus Aureus isolate SA124 (susceptible); assay: MIC in multiwell plate broth dilution, isolate SA124
Procedure: as §1, §2, §3, §4, §5, §6

[6] = tested on: Staphylococcus Aureus isolate SA6 (susceptible to all drugs); assay: MIC in multiwell plate broth dilution, isolate SA6
Procedure: as §1, §2, §3, §4, §5, §6

CC(C)(C)c1ccc(C2CCC(C(C)(C)C)CC2)cc1O (stereo not shown) [2-t-butyl-5-(4-t-butylcyclohexyl)-phenol]
MIC (Staphylococcus Aureus): < 10 µg/mL

CC(C)(C)c1ccc(-c2ccc(C(C)(C)C)c(O)c2)cc1 [DTBBP, 2-t-butyl-5-(4-t-butylphenyl)-phenol]
MIC ([1]; isolate SA15, 24 hr, read-out: DTBBP MIC (24 hr)): 2 µg/mL (≈ 7.08 µM) | MIC ([1]; isolate SA15, 48 hr, read-out: DTBBP MIC (48 hr)): 4 µg/mL (≈ 14.2 µM) | MIC ([2]; isolate SA76, 24 hr, read-out: DTBBP MIC (24 hr)): 2 µg/mL (≈ 7.08 µM) | MIC ([2]; isolate SA76, 48 hr, read-out: DTBBP MIC (48 hr)): 4 µg/mL (≈ 14.2 µM) | MIC ([3]; isolate SA100, 24 hr, read-out: DTBBP MIC (24 hr)): 4 µg/mL (≈ 14.2 µM) | MIC ([3]; isolate SA100, 48 hr, read-out: DTBBP MIC (48 hr)): 4 µg/mL (≈ 14.2 µM) | MIC (Staphylococcus Aureus): < 1 µg/mL | MIC ([4]; isolate SA22, 24 hr, read-out: DTBBP MIC (24 hr)): 2 µg/mL (≈ 7.08 µM) | MIC ([4]; isolate SA22, 48 hr, read-out: DTBBP MIC (48 hr)): 2 µg/mL (≈ 7.08 µM) | MIC ([5]; isolate SA124, 24 hr, read-out: DTBBP MIC (24 hr)): 2 µg/mL (≈ 7.08 µM) | MIC ([5]; isolate SA124, 48 hr, read-out: DTBBP MIC (48 hr)): 4 µg/mL (≈ 14.2 µM) | MIC ([6]; isolate SA6, 24 hr, read-out: DTBBP MIC (24 hr)): 2 µg/mL (≈ 7.08 µM) | MIC ([6]; isolate SA6, 48 hr, read-out: DTBBP MIC (48 hr)): 4 µg/mL (≈ 14.2 µM)

CC(C)(C)c1cc(C2CCCCC2)ccc1O [2-t-butyl-4-cyclohexylphenol]
MIC (Staphylococcus Aureus): < 10 µg/mL

CCCCCCCCc1ccc(O)c(C(C)(C)C)c1 [2-t-butyl-4-n-octylphenol]
MIC (Staphylococcus Aureus): < 10 µg/mL
